# From patent publication US20210085692A1, “AGENTS, COMPOSITIONS AND METHODS FOR TREATING AND PREVENTING ALZHEIMER'S DISEASE” (UNIVERSITY OF SOUTHERN CALIFORNIA, priority 2018, published 2021)
# What was measured:
# [1] = intravenous doses in the same dose range, earlier studies; cited from earlier work
# [2] = test system: patients with mild cognitive impairment due to AD or mild AD or dementia; experiment: Phase 1 clinical trial: MRI indicators of regeneration (gray matter, hippocampal volume); format: in vivo, human
# [3] = test system: patients with mild cognitive impairment due to AD or mild AD or dementia; experiment: Phase 1 clinical trial: safety, tolerability and maximally tolerated dose; format: in vivo, human
# Method: (§1) Clinical Trials were carried out in adult humans (see gov Identifier: NCT02221622 for the ongoing Phase 1b/2a clinical trial at https://clinicaltrials.gov/ct2/show/NCT02221622).
# (§2) A randomized double-blind, placebo controlled, multiple ascending dose, phase 1 clinical trial was conducted in patients with mild cognitive impairment due to AD or mild AD or dementia.
# Participants were randomly assigned to receive weekly intravenous infusion of either 2 mg, 4 mg, or 6 mg of Allo or placebo (N=6/group) for 12 weeks. Primary outcomes were to assess safety, tolerability and determine maximally tolerated dose (MTD). Secondary exploratory outcomes were the feasibility and impact of Allo on MRI indicators of regeneration and cognition. […]
# The trial evaluated three doses (2.0, 4.0 and 6.0 mg) of allopregnanolone (Allo) in a delivery vehicle of 6% sulfobutylether-β-cyclodextrin and 0.9% sodium chloride and placebo containing an equal volume of 0.9% sodium chloride for injection USP administered by intravenous sinfusion once per week for 12 weeks. […] Grouped differences from placebo-treated participants were evaluated in an exploratory fashion using the outcomes planned for the larger phase 2, proof of concept trial in order to obtain parameter estimates for the trial design.] […]
# [4] = test system: patients with mild cognitive impairment due to AD or mild AD or dementia; experiment: Phase 1 clinical trial: cognition (ADAScog14, Cog state); format: in vivo, human; conditions: 12 weeks, once per week
# Method: as §2
# (§3) Participants were randomly assigned to receive weekly intravenous infusion of either 2 mg, 4 mg, or 6 mg of Allo or placebo (N=6/group) for 12 weeks. Primary outcomes were to assess safety, tolerability and determine maximally tolerated dose (MTD). Secondary exploratory outcomes were the feasibility and impact of Allo on MRI indicators of regeneration and cognition. Lymphocyte derived iPSCs differentiated to neural stem cells were used to develop biomarker strategy to identify potential regenerative responders.
# The standard Phase I dose escalation double-blind, placebo-controlled, single site trial included 24 research participants in three dose cohorts. […]
# The trial evaluated three doses (2.0, 4.0 and 6.0 mg) of allopregnanolone (Allo) in a delivery vehicle of 6% sulfobutylether-β-cyclodextrin and 0.9% sodium chloride and placebo containing an equal volume of 0.9% sodium chloride for injection USP administered by intravenous sinfusion once per week for 12 weeks. […] Grouped differences from placebo-treated participants were evaluated in an exploratory fashion using the outcomes planned for the larger phase 2, proof of concept trial in order to obtain parameter estimates for the trial design.]
# [5] = test system: humanized ApoE3,3, ApoE4,4 and ApoE3,4 mice; experiment: Novel Object Recognition (NOR) memory test; format: in vivo; conditions: for Novel Object Discrimination Index / Novel Object Exploration time: vs saline
# Method: To access impact of Allopregnanolone (Allo) on memory function, humanized ApoE3,3, ApoE4,4 and ApoE3,4 mice were tested using Novel Object Recognition (NOR) in accordance with published literature (Antunes and Biala, Cogn Process. 2012 May; 13(2): 93-110; Ennaceur, Behav Brain Res. 2010 Dec. 31; 215(2):244-54. doi: 10.1016/j.bbr.2009.12.036. Epub 2010 Jan. 7; Leger et al., Nat Protoc. 2013 December; 8(12):2531-7. doi: 10.1038/nprot.2013.155. Epub 2013 Nov. 21; Piterkin et al., Learn. Mem., 15 (2008), pp. 785-791; Taglialatela et al., Behav Brain Res. 200(1): 95-99. 2009).
# Behavioral NOR testing was conducted following 24 weekly injections of Allopregnanolone (Allo; 1.5 mg/mL) or saline (0.9%). The Allo and saline used to treat the mice were identical to the Allo and saline used in the clinical trial (ClinicalTrials.gov Identifier: NCT02221622).
# Behavioral testing and analysis of behavioral outcomes were conducted blind to the experimental condition. Code for treatment groups was unblinded for statistical analyses by analyst who was independent of behavioral testing.
# Difference in exploration time (in seconds) was calculated by subtracting the time spent exploring the familiar object from that of the novel object (Tn−Tf) and denoted by ‘Df’. Second, a ratio of the difference in exploration time to the total time spent exploring was calculated (Tn−Tf/Tn+Tf) and denoted by Discrimination Index (DI). The DI can vary between +1 and −1, where a positive score indicates more time spent with the novel object, a negative score indicates more time spent with the familiar object, and a zero score indicates a null preference (Antunes and Biala, 2012). The DI adjusts for difference in total exploration time (Broadbent et al.). Statistical analyses were conducted using Mann-Whitney test and p-value of less than 0.05 was considered significant.
# [6] = Phase 1 multiple ascending dose clinical trial: plasma levels after weekly intravenous infusion; format: in vivo, human; conditions: for Cmax: human, plasma
# Method: as §1, §2, §3
# The standard Phase I dose escalation double-blind, placebo-controlled, single site trial included 24 research participants in three dose cohorts. Each cohort included 8 research participants randomized to drug or placebo in a 6:2 allocation ratio. Cohorts as follows: • Dosing cohort 1) 2 mg Allo or placebo • Dosing cohort 2) 4 mg Allo or placebo • Dosing cohort 3) 6 mg Allo or placebo Each dose cohort was separated by 6 weeks to process, obtain, and assess all safety and tolerability data.
# The trial evaluated three doses (2.0, 4.0 and 6.0 mg) of allopregnanolone (Allo) in a delivery vehicle of 6% sulfobutylether-β-cyclodextrin and 0.9% sodium chloride and placebo containing an equal volume of 0.9% sodium chloride for injection USP administered by intravenous sinfusion once per week for 12 weeks. Although the dosing study is not powered to detect statistically significant treatment differences on MRI outcomes and cognition, the MRI is required per FDA safety concerns with respect to amyloid-related imaging abnormalities, such as micro hemorrhages, as per FDA correspondence. Grouped differences from placebo-treated participants were evaluated in an exploratory fashion using the outcomes planned for the larger phase 2, proof of concept trial in order to obtain parameter estimates for the trial design.]
# Allo dose selection of 2.0, 4.0 and 6.0 mg was determined by pre-clinical dose response analyses for neurogenesis, an IV bridging study in 3×TgAD mice, prior clinical studies, physiologically-based pharmacokinetics (PBPK) modeling and simulations of pharmacodynamic responses using available pre-clinical and clinical data of non-sedative to mildly sedative doses Planned study Allo doses are within the FDA requirement to not exceed 157 nmol/L (50 ng/ml) plasma concentration Planned Allo dose equivalencies based on 70 kg human are: 2.0 mg=0.028 mg/kg; 4.0 mg=0.056/mg/kg; 6.0 mg=0.084 mg/kg. With respect to safety, intravenous doses of Allo in the same dose range as those for this trial have been administered previously with acceptable safety and. […] Allo in sulfobutylether-β-cyclodextrin and 0.9% sodium chloride formulation was administered intravenously over 30 minutes once per week for 12 weeks. Participants were monitored under medical supervision for a minimum of two hours after each dose. The regimen for Allo administration is based on preclinical analyses that indicate that a once per week treatment regimen results in increased neurogenesis with reduction in AD pathology.
# [7] = ApoE3:3 females and males, 24 weekly injections
structure (smiles),measurement,setting,value
"CC(=O)[C@H]1CC[C@H]2[C@@H]3CC[C@H]4C[C@H](O)CC[C@]4(C)[C@H]3CC[C@]12C [Allo, 3α-hydroxy-5α-pregnan-20-one]","TEAEs (nausea, mild sedation, fatigue, flushing, anxiety)",[1],mild and transient
same,Left hippocampal volume (subfield analysis),"[2]; Allo 4 mg cohort, 12 weeks",increase in left hippocampal volume
same,Brain mass,[2]; human subjects over 55 years having Apo E4 genetic marker,increased brain mass
same,MRI based indicators of gray matter volume,"[2]; structural analysis, 12 weeks",consistent with regeneration in select brain regions
same,"MTD, established by onset of sedation",[3]; intravenous infusion,> 6 mg
same,"Adverse effects, serious adverse events, ARIA","[3]; twelve week exposure, multiple doses once per week","no reportable adverse effects, serious adverse events or ARIA"
same,Cognitive function measured by ADAScog14,[4],not improved
same,Cog state indicators,[4]; some indicators,consistent with improvement
same,Novel Object Discrimination Index,[5]; [7],no effect
same,Novel Object Exploration time,[5]; [7],"no effect, either positive or negative"
same,Exploration of the novel object,"[5]; ApoE 3:4 female mice, p=0.05",significantly increased
same,Ability to discriminate between novel vs familiar object (Discrimination Index),"[5]; ApoE 3:4 female mice, p=0.06",trended towards a significant increase
same,Novel Object Discrimination Index,"[5]; ApoE 4/4 females and males, p<0.05",significantly increased
same,Novel Object Exploration time,"[5]; ApoE 4:4 females, 24 weekly injections",significantly increased
same,Novel Object Exploration time,"[5]; ApoE4:4 males, 24 weekly injections",trended towards an increase
same,Correlation (R) of Cmax with Allo delivered in mg/kg dose,"[6]; 2, 4 and 6 mg cohorts",0.77
same,Time to peak plasma levels,"[6]; from start of 30 minute intravenous infusion, AD patients",≤ 30 min
same,Cmax,[6]; 2 mg intravenous infusion,63 ± 21 nM
same,Cmax,[6]; 4 mg intravenous infusion,130 ± 26 nM
same,Cmax,[6]; 6 mg intravenous infusion,248 ± 84 nM
